Counter-ions that a name gives are not always drawn.
Columns and labels:
[1] = tested on: KG-1 cells; assay: Antiproliferative activity, KG-1 cells (AlamarBlue); assay type: cell-based; details: 120 h incubation
Procedure: (§1) Antiproliferative activity of CDK8 inhibitors according to the present invention was measured in a cell-based test on continuous cell cultures MV4-11 (biphenotypic myelomonocytic leukemia, ATCC® CRL-9591™), KG-1 (acute myeloid leukemia, ATCC® CCL-246™) using a vital stain AlamarBlue (ThermoFisher, #DAL1100). The cells were grown in RPMI-1640 (PanEco, #C330p) medium with addition of 10% FBS (Gibco, #16140-071); washed and resuspended in culture medium with 10% FBS (Gibco, #16140-071) in 96-well culture plates (Corning, #3599) with ≈10×10^3 cells in […] of medium per well. The compounds in question were dissolved in DMSO and diluted with a medium with 10% FBS (Gibco, #16140-071) to a final concentration ranging from 0 to 100 μM. […] of diluted compounds were then added to each well (final DMSO concentration was less than 1%) and incubated under 5% CO2 atmosphere at 37° C. for 120 h. After incubating, 15 μL/well of AlamarBlue (ThermoFisher, #DAL1100) reagent was added, contents of plates were mixed in an orbital shaker (Biosan, Latvia) and further incubated for 3-5 h at 37° C. under 5% CO2 atmosphere. Number of living cells was estimated using a microplate spectrophotometer (Tecan Infinite M200Pro, Switzerland) measuring fluorescent signal at the excitation wavelength (λEx) of 540 nm and emission wavelength (λEm) of 590 nm.
(§2) IC50 values were calculated using Magellan 7.2 software (Tecan, Switzerland) approximating experimental points by four-parameter logistic model with the optimization by Levenberg-Marquardt (Table 6).

[2] = biological target: CDK8/Cyclin C (Homo sapiens (Human), UniProt P49336); assay: LanthaScreen binding to recombinant CDK8/Cyclin C; details: TR-FRET, Tracer 236 10 nM, CDK8/Cyclin C 5 nM
CDK8/Cyclin C, sequence (P49336 whole entry): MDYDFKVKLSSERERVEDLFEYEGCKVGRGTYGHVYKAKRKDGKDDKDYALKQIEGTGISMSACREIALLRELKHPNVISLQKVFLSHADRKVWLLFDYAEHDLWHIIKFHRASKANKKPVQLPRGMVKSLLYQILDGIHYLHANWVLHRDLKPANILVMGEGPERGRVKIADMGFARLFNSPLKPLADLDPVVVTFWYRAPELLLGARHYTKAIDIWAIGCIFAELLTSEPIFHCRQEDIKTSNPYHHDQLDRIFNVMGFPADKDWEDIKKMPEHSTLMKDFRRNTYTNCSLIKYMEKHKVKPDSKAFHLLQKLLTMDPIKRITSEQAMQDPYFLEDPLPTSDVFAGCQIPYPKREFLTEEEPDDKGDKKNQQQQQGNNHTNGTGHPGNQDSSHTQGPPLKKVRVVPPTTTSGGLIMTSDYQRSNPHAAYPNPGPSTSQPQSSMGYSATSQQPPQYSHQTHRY
CDK8/Cyclin C, sequence (P24863 whole entry partner): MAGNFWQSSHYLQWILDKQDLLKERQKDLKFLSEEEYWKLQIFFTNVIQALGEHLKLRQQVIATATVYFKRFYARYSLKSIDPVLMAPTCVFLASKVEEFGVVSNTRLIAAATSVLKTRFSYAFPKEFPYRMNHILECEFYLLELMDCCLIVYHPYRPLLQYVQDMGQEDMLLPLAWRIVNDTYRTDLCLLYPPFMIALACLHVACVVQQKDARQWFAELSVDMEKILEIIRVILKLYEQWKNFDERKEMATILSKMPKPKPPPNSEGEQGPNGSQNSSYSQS
Procedure: Capability of compounds of the present invention to bind to CDK8 protein was detected using LanthaScreen (ThermoFisher) assay. We detected FRET signal proportional to the amount of CDK8-bound fluorescently-labeled ligand (Tracer 236) that competes with inhibitor for ATP binding site. We carried out the measurements in a 15 μl reaction volume using a 384-well plate (Corning, #CLS4513). Enzyme CDK8/Cyclin C (ThermoFisher, #PR7261B) was mixed with antibodies Anti-His-tag-Biotin (ThermoFisher, #PV6090), Streptavidin-Eu (ThermoFisher, #PV6025), the resulting mixture was added to plate wells (5 MKπ/well). Final concentrations of substances were as follows: CDK8/Cyclin C—5 nM, Streptavidin-Eu—3 nM, Anti-His-tag-Biotin—3 nM. Staurosporine (S4400, Sigma) was used as a reference inhibitor, and 0.1% solution of dimethyl sulphoxide (DMSO) in reaction buffer was used as a blank, the reaction buffer comprised 250 mM HEPES (pH 7.5), 50 mM MgCl2, 5 mM EGTA, and 0.05% Brij-35.
The inhibitors and controls in question were added to corresponding wells (5 μl/well). The plate was incubated at room temperature for 20 minutes. After incubating, 5 μl/well of tracer solution Alexa Fluor-647 (Kinase Tracer 236, ThermoFisher, #PV5592)) was added to the wells. Final concentration of tracer was 10 nM. Reaction buffer, instead of tracer solution, was used as a negative control. The plate was incubated for 40 minutes at 25° C., TR-FRET signal was then measured according to the manufacturer's guidelines on SPARK20 plate reader (Tecan, Switzerland), and the value was converted to the amount of kinase-bound tracer. IC50 values were calculated using SparkControl Magellan 1.2 software (Tecan, Switzerland) approximating experimental points by four-parameter logistic model with the optimization by Levenberg-Marquardt (Table 5).

[3] = General cytotoxicity on HepG2 cells; assay type: cell-based; details: human, 72 h incubation
Procedure: The CC50 values were determined in the test for General cytotoxicity On HepG2 cells (hepatocellular carcinoma, ATCC® HB-8065™). Cells per well were seeded in 96-well plates (Corning, #3599) at a concentration ≈20×10^3 cells in 100 μL of medium and incubated for 72 h with added compounds within the range of concentrations of 200 to 0.78 μM. Cell viability was assessed using the above method.

[4] = Stability of the compounds in human blood plasma; assay type: in vitro ADME; details: pooled human blood plasma, 10 μM, 4 hours at 37° C.
Procedure: To assess the blood plasma stability of the compounds, we used pooled human blood plasma taken from ten healthy donors. The initial candidate solution (10 mM in DMSO) was diluted with pooled blood plasma to a concentration of 10 μm (test solution). The test solution was incubated in a dry block thermostat for 4 hours at 37° C. HPLC with Agilent 1200 liquid chromatography system (Agilent, USA) was employed to determine peak areas of the compounds in test samples, said peak areas corresponding to the initial test time (prior to incubation) and the final test time (after incubation in a dry block thermostat for 4 hours at 37° C.), proteins were preliminarily precipitated with acetonitrile. Chromatographic analysis was performed in a gradient elution regime with a flow rate of 1 mL/min Substance amount in % in a sample after thermostatting was determined.
The stability of the compounds was estimated. The compounds described herein show at least 90% chemical stability, i.e. they are chemically stable in human blood plasma (Table 2).

[5] = tested on: MV4-11 cells; assay: Antiproliferative activity, MV4-11 cells (AlamarBlue); assay type: cell-based; details: Homo sapiens, 120 h incubation, read-out: MV-4-11 IC50
Procedure: as §1, §2

[6] = Permeability through Caco-2 cell monolayer; assay type: in vitro ADME; details: human; for Papp A→B at 2 h, 10 μM: Caco-2, A→B, pH 6.5/7.4, 2 hour incubation; for efflux ratio at 2 h, 10 μM: Caco-2, Papp B-A/Papp A-B
Procedure: Estimation of permeability through Caco-2 cell monolayer enables assessment of the ability of the substances to penetrate through biological membranes by means of both active and passive transport.
Intestinal epithelial cells Caco-2 were grown on filter inserts (pore size 0.4 jam, BD Falcon with High Density) for 21 days; monolayer integrity was then checked using Lucifer Yellow (Sigma-Aldrich, USA) according to the standard protocol. In A→B transfer (“intestinal lumen”-“blood stream” transfer), solutions of the test substances in buffer, pH 6.5 (HBSS, 10 mM HEPES, 15 mM glucose) at a concentration of 10 μM were added to the upper chamber; whereas the lower chamber was filled with buffer, pH 7.4 (HBSS, 10 mM HEPES, 15 mM Glucose, 1% BSA). In B→A transfer (“blood stream”-“intestinal lumen” transfer), the upper chamber was filled with buffer, pH 6.5, whereas the solutions of the test substances in buffer, pH 7.4, at a concentration of 10 μM were added to the lower chamber. A highly permeable substance propranolol was used as a control.
After 2 hour incubation at 37° C. under an atmosphere containing 5% CO2, the amounts of the test substances in the upper and lower chambers were measured by HPLC using an Agilent1200 HPLC system (Agilent, USA), proteins were preliminarily precipitated with acetonitrile. Chromatographic analysis was performed in a gradient elution regime with a flow rate of 1 mL/min. The peak areas corresponding to the compounds were detected on chromatograms. Based on the peak areas of a compound in the calibration standards, concentration of the compound in the initial solution and in the samples from upper chamber wells and lower chamber wells was measured.
Cellular permeability coefficient Papp was calculated by the formula: Papp=(Ca(t)*Va)/(Cd(0)*t*Area), where Papp is the effective permeability constant, m/s V is the volume of solution (0.8 ml in A→B test, 0.2 ml in B→A test), ml Area is the membrane surface area (0.33 cm^2), cm^2 t is the time of incubation (7200 sec), sec Cd(0) is the initial solution concentration, μM Ca(t) is the concentration of the solution after 2 hours (the concentration in the sample from the well of the lower chamber in A→B test; the concentration in the sample from the well of the top chamber in B→A test), μM
The value was calculated by the following formula: efflux=Papp B-A/Papp A-B, where Pape A-B-direct A→B test permeability value Papp B-A-reverse B→A test permeability value

| Structure (SMILES) | IC50 [2] | Chemical stability in human blood plasma 4 h, % [4] | IC50 [5] | Papp A→B at 2 h, 10 μM [6] | efflux ratio at 2 h, 10 μM [6] | IC50 ([1]; Homo sapiens, KG-1, 120 h) | CC50 at 72 h [3] | IC50 ([1]; dihydrochloride) |
| --- | --- | --- | --- | --- | --- | --- | --- | --- |
| CN1CCN(C(=O)Cn2cc(-c3ccc(-c4cnc(N)c5ncc(C(=O)NCC6CC6)cc45)cc3)cn2)CC1 [Compound 3.44, 8-amino-N-(cyclopropylmethyl)-5-(4-(1-(2-(4-methylpiperazin-1-yl)-2-oxoethyl)-1H-pyrazole-4-yl)phenyl)-1,7-naphthyridine-3-carboxamide] | 1.4 nM | 100.0% | 0.7 nM |  |  | 0.7 nM | 65300 nM |  |
| COCCN(C)C(=O)c1cnc2c(N)ncc(-c3ccc(-c4cnn(CCOC)c4)cc3)c2c1 [Compound 3.57, 8-amino-N-(2-methoxyethyl)-5-(4-(1-(2-methoxyethyl)-1H-pyrazole-4-yl)phenyl)-N-methyl-1,7-naphthyridine-3-carboxamide] | 2.27 nM |  |  |  |  | 17.1 nM | ~90000 nM |  |
| CN1CCN(C(=O)Cn2cc(-c3ccc(-c4cnc(N)c5ncc(C(=O)N6CCN(C)CC6)cc45)cc3)cn2)CC1 [Compound 3.50, 2-(4-(4-(8-amino-3-(4-methylpiperazine-1-carbonyl)-1,7-naphthyridine-5-yl)phenyl)-1H-pyrazole-1-yl)-1-(4-methylpiperazine-1yl)ethan-1-one] | 2.03 nM |  | 3.8 nM |  |  | 26.6 nM | > 100000 nM |  |
| CN1CCN(C(=O)c2cnc3c(N)ncc(-c4ccc(-c5cnn(CC(=O)N(C)C)c5)cc4)c3c2)CC1 [Compound 3.49 × 2HCl, 2-(4-(4-(8-amino-3-(4-methylpiperazine-1-carbonyl)-1,7-naphthyridine-5-yl)phenyl)-1H-pyrazole-1-yl)-N,N-dimethylacetamide dihydrochloride] | 1.64 nM |  |  |  |  |  |  | 16 nM |
| COCCn1cc(-c2ccc(-c3cnc(N)c4ncc(C(=O)N5CCN(C)CC5)cc34)cc2)cn1 [Compound 3.51, (8-amino-5-(4-(1-(2-methoxyethyl)-1H-pyrazole-4-yl)phenyl)-1,7-naphthyridin-3-yl)(4-methylpiperazine-1-yl)methanone] | 1.44 nM | 100.0% | 16.9 nM | 26.2 ×10⁻⁶ cm/s | 1.88 | 12.9 nM | > 100000 nM |  |

Compounds with a lower IC50 [2], results first:

| IC50 [2] | Chemical stability in human blood plasma 4 h, % [4] | IC50 [5] | Papp A→B at 2 h, 10 μM [6] | efflux ratio at 2 h, 10 μM [6] | Structure (SMILES) | IC50 ([1]; Homo sapiens, KG-1, 120 h) | CC50 at 72 h [3] | IC50 ([1]; dihydrochloride) |
| --- | --- | --- | --- | --- | --- | --- | --- | --- |
| 1.24 nM |  |  |  |  | COCCN(C)C(=O)c1cnc2c(N)ncc(-c3ccc(-c4cnn(CC(=O)N(C)C)c4)cc3)c2c1 [Compound 3.55] | 6.5 nM | > 100000 nM |  |
| 1.27 nM | 94.6% | 15.8 nM | 42.8 ×10⁻⁶ cm/s | 0.55 | COCCn1cc(-c2ccc(-c3cnc(N)c4ncc(C(=O)N5CCC5)cc34)cc2)cn1 [Compound 3.54, (8-amino-5-(4-(1-(2-methoxyethyl)-1H-pyrazole-4-yl)phenyl)-1,7-naphthyridin-3-yl) (azetidin-1-yl)methanone] | 12.2 nM | ~90000 nM |  |
| 0.88 nM | 100.0% | 0.5 nM | 15.7 ×10⁻⁶ cm/s | 1.89 | CN(C)C(=O)Cn1cc(-c2ccc(-c3cnc(N)c4ncc(C(=O)NCC5CC5)cc34)cc2)cn1 [Compound 3.43, 8-Amino-N-(cyclopropylmethyl)-5-(4-(1-(2-(dimethylamino)-2-oxoethyl)-1H-pyrazole-4-yl)phenyl)-1,7-naphthyridine-3-carboxamide] | 0.2 nM | 68100 nM |  |
| 1.07 nM |  |  |  |  | COCCN(C)C(=O)c1cnc2c(N)ncc(-c3ccc(-c4cnn(CC(=O)N5CCN(C)CC5)c4)cc3)c2c1 [Compound 3.56, 8-amino-N-(2-methoxyethyl)-N-methyl-5-(4-(1-(2-(4-methylpiperazine-1-yl)-2-oxoethyl)-1H-pyrazole-4-yl)phenyl)-1,7-naphthyridine-3-carboxamide] | 13.8 nM | > 100000 nM |  |

Reference: patent US11840531B2, “CDK8/19 inhibitors” (JOINT STOCK COMPANY “BIOCAD”, priority 2018, dated 2023)
